Data on 51 molecules can be found in patent publication US20090312406A1, “COUMARIN COMPOUNDS AND THEIR USE FOR TREATING VIRAL INFECTION” (priority 2008, published 2009).

Each structure is given as a SMILES string.

In the first assay the test system is Influenza A/WSN/33 (H1N1) virus. Kind of assay: In vitro anti-influenza virus assay (neutralization test), cytopathic effect on MDCK cells. Conditions: MDCK cells, 72 h, lower bound (10 nM), upper in μM, read-out: IC50 (concentration reducing virus-induced cytopathic effect by 50%). The assay is classed as cell-based. Here is the method:
Anti-influenza activities of the coumarin compounds were evaluated by measuring the ability of a test compound to inhibit the cytopathic effect induced by an influenza virus on MDCK cells. The 96-well tissue culture plates were seeded with 200 μL of MDCK cells at a concentration of 1.1×10^5 cells/mL in DMEM with 10% fetal bovine serum (FBS). The plates were incubated for 24-30 h at 37° C. and were used at about 90% confluency. Influenza A/WSN/33 (H1N1) virus (100 TCID50) was added to the cells and incubated at 35° C. for 1 h. After adsorption, the infected cell plates were overlaid with 50 μL of DMEM plus 2% FBS and a test compound with different concentrations. The plate was incubated at 35° C. for 72 h. At the end of incubation, the plates were fixed by the addition of 100 μL of 4% formaldehyde for 1 h at room temperature. After the removal of formaldehyde, the plates were stained with 0.1% crystal violet for 15 min at room temperature. The plates were washed and dried, and the density of the well was measured at 570 nm. The concentration required for a test compound to reduce the virus-induced cytopathic effect (CPE) by 50% relative to the virus control was expressed as IC50.
Compounds 1 and 95 were also tested on various influenza virus strains. Amantadine or Relenza was also tested for comparison. IC50 is defined as the concentration required for a test compound to reduce the virus-induced cytopathic effect (CPE) by 50% relative to the virus control.
Background: Damage to the host cells serves as the signal in cytopathic effect assays.
As to `Cc1cc(=O)oc2c1ccc1oc(C(=O)c3ccc(F)cc3F)c(-c3ccccc3)c12` [Compound 59], the IC50 lay in the range of 10 to 999 nM. `C#CCOc1cccc(C(=O)c2oc3ccc4c(C)cc(=O)oc4c3c2-c2ccccc2)c1` [Compound 233]: the IC50 was in the range of 10 to 999 nM.

With `CC(=O)OCCCCCCOc1cccc(C(=O)c2oc3ccc4c(C)cc(=O)oc4c3c2-c2ccccc2)c1` [Compound 237], the IC50 lay in the range of 10 to 999 nM. As to `Cc1ccc(C(=O)c2oc3ccc4c(C)cc(=O)oc4c3c2-c2ccccc2)cc1` [Compound 41], the IC50 was 10 to 999 nM. The same measure, in the same setting: as for `C=CCOc1cccc(C(=O)c2oc3ccc4c(C)cc(=O)oc4c3c2-c2ccccc2)c1` [Compound 76], the figure is 10 to 999 nM; as for `C=CCCOc1cccc(C(=O)c2oc3ccc4c(C)cc(=O)oc4c3c2-c2ccccc2)c1` [Compound 77], 10 to 999 nM. For the molecule `Cc1cc(=O)oc2c1ccc1oc(C(=O)c3cc(F)ccc3F)c(-c3ccccc3)c12` [Compound 61], the IC50 is 10 to 999 nM. In the case of `Cc1cc(=O)oc2c1ccc1oc(C(=O)c3ccc(Br)s3)c(-c3ccccc3)c12` [Compound 98], the IC50 is 10 to 999 nM. On the same count and under the same terms, as for `Cc1cc(=O)oc2c1ccc1oc(C(=O)c3ccccc3)c(-c3cccc(Br)c3)c12` [Compound 139], the figure is 10 to 999 nM.

`CCCCCc1c(C(=O)c2ccccc2)oc2ccc3c(C)cc(=O)oc3c12` [Compound 156]: the IC50 was in the range of 10 to 999 nM. Take `Cc1cc(=O)oc2c1ccc1oc(C(=O)c3ccccc3)c(-c3ccccc3Br)c12` [Compound 138]: the IC50 was 10 to 999 nM. The same measure, in the same setting: as for `Cc1cc(=O)oc2c1ccc1oc(C(O)c3ccccc3)c(-c3cccc(C#N)c3)c12` (stereo not drawn) [Compound 234], the figure is 10 to 999 nM. Regarding `CCCCOc1cccc(C(=O)c2oc3ccc4c(C)cc(=O)oc4c3c2-c2cccc(Br)c2)c1` [Compound 262], the IC50 fell in the range of 10 to 999 nM. Regarding `C=CCCCOc1cccc(C(=O)c2oc3ccc4c(C)cc(=O)oc4c3c2-c2ccccc2)c1` [Compound 78], the IC50 lay in the range of 10 to 999 nM. Same read-out and setting: as for `Cc1cc(=O)oc2c1ccc1oc(Cc3ccccc3)c(-c3ccccc3)c12` [Compound 173], the figure is 10 to 999 nM. Take `Cc1cc(=O)oc2c1ccc1oc(C(=O)c3ccccc3)c(-c3ccccc3F)c12` [Compound 132]: the IC50 lay in the range of 10 to 999 nM. Consider `Cc1cc(=O)oc2c1ccc1sc(C(=O)c3ccccc3)c(-c3ccccc3)c12` [Compound 26], for which the IC50 lay in the range of 10 to 999 nM. As to `O=C(c1ccccc1)c1oc2ccc3c4c(c(=O)oc3c2c1-c1ccccc1)CCC4` [Compound 20], the IC50 is 10 to 999 nM.

As to `CCCCCOc1cccc(C(=O)c2oc3ccc4c(C)cc(=O)oc4c3c2-c2ccccc2)c1` [Compound 71], the IC50 lay within 10 to 999 nM. In the case of `CCCCOc1cccc(C(=O)c2oc3ccc4c(C)cc(=O)oc4c3c2-c2ccccc2)c1` [Compound 70], the IC50 was in the range of 10 to 999 nM.

For the molecule `Cc1cc(=O)oc2c1ccc1oc(C(=O)c3ccccc3)c(-c3ccco3)c12` [Compound 159], the IC50 is 10 to 999 nM. With `CCCc1cc(=O)oc2c1ccc1oc(C(=O)c3ccccc3)c(-c3ccccc3)c12` [Compound 14], the IC50 was in the range of 10 to 999 nM.

On to `Cc1cc(=O)oc2c1ccc1oc(C(=O)c3ccccc3)c(-c3ccc(Cl)cc3)c12` [Compound 137], for which the IC50 is 10 to 999 nM.

As to `Cc1cc(=O)oc2c1ccc1oc(C(=O)c3ccccc3)c(-c3cccs3)c12` [Compound 160], the IC50 lay in the range of 10 to 999 nM.

Staying with this assay, now noted: MDCK cells, 72 h, ranges given, read-out: IC50 (concentration reducing virus-induced cytopathic effect by 50%).
In the case of `Cc1cc(=O)oc2c1ccc1oc(C(=O)c3cccc(OCCN4CCOCC4)c3)c(-c3ccccc3)c12` [Compound 80], the IC50 lay within 1000 to 5900 nM. The same measure, in the same setting: next, `Cc1cc(=O)oc2c1ccc1oc(C(=O)c3cc(F)ccc3F)c(-c3ccc(F)cc3)c12` [Compound 221]: 1000 to 5900 nM; `Cc1cc(=O)oc2c1ccc1oc(C(=O)c3ccccc3)c(-c3cccc(Cl)c3)c12` [Compound 136]: 1000 to 5900 nM. Consider `Cc1cc(=O)oc2c1ccc1oc(C(=O)c3ccc(O)cc3)c(-c3ccccc3)c12` [Compound 34], for which the IC50 lay within 1000 to 5900 nM. Still for that read-out and setting: next, `Cc1cc(=O)oc2c1ccc1oc(C(=O)c3ccc([N+](=O)[O-])cc3)c(-c3ccc(Br)cc3)c12` [Compound 216]: 6000 to 25000 nM; `Cc1cc(=O)oc2c1ccc1oc(C(=O)c3ccccc3)cc12` [Compound 153]: 1000 to 5900 nM; `Cc1cc(=O)oc2c1ccc1oc(C(=O)c3cccc(OCCN4CCc5ccccc5C4)c3)c(-c3ccccc3)c12` [Compound 240]: 1000 to 5900 nM.

With `Cc1cc(=O)oc2c1ccc1oc(/C(=N/O)c3ccccc3)c(-c3ccccc3)c12` [Compound 171], the IC50 was 1000 to 5900 nM. On to `Cc1ccccc1C(=O)c1oc2ccc3c(C)cc(=O)oc3c2c1-c1ccccc1` [Compound 39], for which the IC50 was in the range of 6000 to 25000 nM.

For the molecule `Cc1cc(=O)oc2c1ccc1oc(C(=O)c3ccc(Cl)cc3)c(-c3ccccc3)c12` [Compound 49], the IC50 is 6000 to 25000 nM.

Consider `Cc1cc2ccc3oc(C(=O)c4ccccc4)c(-c4ccccc4)c3c2oc1=O` [Compound 3], for which the IC50 is 1000 to 5900 nM. As to `Cc1cc(=O)oc2c1ccc1oc(C(=O)c3cccs3)c(-c3ccc(Br)cc3)c12` [Compound 254], the IC50 was 1000 to 5900 nM. Regarding `Cc1cc(=O)oc2c1ccc1oc(C(=O)c3cccc(OCCCCN4CCOCC4)c3)c(-c3ccccc3)c12` [Compound 82], the IC50 lay within 1000 to 5900 nM.

As for `C#CCCC(=O)Oc1cccc(C(=O)c2oc3ccc4c(C)cc(=O)oc4c3c2-c2ccccc2)c1` [Compound 202], the IC50 lay in the range of 1000 to 5900 nM. Consider `O=C(c1ccccc1)c1oc2ccc3c4ccccc4c(=O)oc3c2c1-c1ccccc1` [Compound 22], for which the IC50 fell in the range of 6000 to 25000 nM. `Cc1cc(=O)oc2c1ccc1oc(C(=O)c3ccccc3)c(C3CCCCC3)c12` [Compound 165]: the IC50 lay in the range of 1000 to 5900 nM.

As for `Cc1cc(=O)oc2c1ccc1oc(C(=O)c3cccc(N)c3)c(-c3ccccc3)c12` [Compound 67], the IC50 lay in the range of 1000 to 5900 nM. In the case of `COc1ccc(C(=O)c2oc3ccc4c(C)cc(=O)oc4c3c2-c2ccccc2)c(OC)c1` [Compound 56], the IC50 is 6000 to 25000 nM. For the molecule `Cc1cc(=O)oc2c1ccc1oc(C(=O)c3cccc(OCCCN4CCOCC4)c3)c(-c3ccccc3)c12` [Compound 81], the IC50 lay in the range of 1000 to 5900 nM. On to `Cc1cc(=O)oc2c1ccc1oc(C(=O)c3cccc(OCCCCI)c3)c(-c3ccccc3)c12` [Compound 236], for which the IC50 lay within 1000 to 5900 nM.

With `Cc1cc(=O)oc2c1ccc1oc(C(=O)c3cccc(OCCOC4OC(O)C(O)C(O)C4CO)c3)c(-c3ccccc3)c12` (stereo not drawn) [Compound 195], the IC50 was 6000 to 25000 nM. As for `Cc1cc(=O)oc2c1ccc1oc(C(=O)c3cccc(OCCCN4CCCCC4)c3)c(-c3ccccc3)c12` [Compound 84], the IC50 lay in the range of 6000 to 25000 nM. `Cc1cc(=O)oc2c1ccc1oc(C(=O)c3cccc(OCCN(C)C)c3)c(-c3ccccc3)c12` [Compound 86]: the IC50 lay within 6000 to 25000 nM. With `Cc1cc(=O)oc2c1ccc1oc(C(=O)c3cccc(OCCCN(C)C)c3)c(-c3ccccc3)c12` [Compound 87], the IC50 is 6000 to 25000 nM. Still for that read-out and setting: as for `Cc1cc(=O)oc2c1ccc1oc(C(=O)c3cccc(Cl)c3)c(-c3ccc(Br)cc3)c12` [Compound 217], the figure is 6000 to 25000 nM.

In the case of `Cc1cc(=O)oc2c1ccc1oc(C(=O)c3cccc(OCCCCCCO[Si](C)(C)C(C)(C)C)c3)c(-c3ccccc3)c12` [Compound 193], the IC50 was 1000 to 5900 nM. `Cc1cc(=O)oc2c1ccc1oc(C(=O)c3cccc(OCCCl)c3)c(-c3ccccc3)c12` [Compound 73]: the IC50 lay within 1000 to 5900 nM.
